Values of other authors as cited in publication PMC4382562 (Current Chemical Genomics and Translational Medicine, 2015).

System: iCell Neurons
Conditions: read-out: Neurite outgrowth IC50 (high content image-based analysis), previously reported

| Structure (SMILES) | IC50 |
| --- | --- |
| CCCCCC[C@H]1C(=O)O[C@H](C)[C@H](NC(=O)c2cccc(NC=O)c2O)C(=O)O[C@@H](C)[C@@H]1OC(=O)CC(C)C [Antimycin A] | ~13 µM |
| CN[C@@H]1C[C@H]2O[C@@](C)([C@@H]1OC)n1c3ccccc3c3c4c(c5c6ccccc6n2c5c31)C(=O)NC4 [Staurosporine] | ~0.9 µM |
